Test results taken from patent US7348300B2, “Acetylenic diol ethylene oxide/propylene oxide adducts and processes for their manufacture” (Air Products and Chemicals, Inc., priority 1999, dated 2008).
Where two headings read alike, the source gives them in different places.

Legend:
[1] = Ross-Miles foam test based upon ASTM D 1173-53; assay type: physicochemical; conditions: 0.1 wt % solution
Experimental: In this test, a 0.1 wt % solution of the surfactant is added from an elevated foam pipette to a foam receiver containing the same solution. The foam height is measured at the completion of the addition (“Initial Foam Height”) and the time required for the foam to dissipate is recorded (“Time to 0 Foam”). This test provides a comparison between the foaming characteristics of various surfactant solutions. In general, in coatings, inks, and agricultural formulations, foam is undesirable because is complicates handling and can lead to coating and print defects, and to inefficient application of agricultural materials.

[2] = Dynamic surface tension of aqueous solutions, maximum bubble pressure method
Description: In the following Examples dynamic surface tension data were obtained for aqueous solutions of various compounds using the maximum bubble pressure method at bubble rates from 0.1 bubbles/second (b/s) to 20 b/s. […] In practical terms, high bubble rates correspond to high printing speeds in lithographic printing, high spray or roller velocities in coating applications, and rapid application rates for agricultural products.
This value is a measure of the efficiency of a surfactant.
The critical aggregation concentrations (solubility limit or critical micelle concentration) were determined by intersection of the linear portion of a surface tension/ In concentration curve with the limiting surface tension as is described in many textbooks. […]
Process solutions containing 0.1 weight percent of a surfactant derived from 2,5,8,11-tetramethyl-6-dodecyne-5,8-diol or containing a fluorosurfactant, potassium perfluorooctane carboxylate provided by 3M of […]. were prepared in order to compare the equilibrium surface tension (EST) and dynamic surface tension (DST). The EST for both solutions was measured using the Wilhemy plate method on a […] manufactured by Kruss, Inc. of Charlotte, N.C. The DST of each process solution was measured via the maximum bubble pressure method.

[3] = Equilibrium surface tension, Wilhemy plate method; assay type: physicochemical; conditions: 0.1 wt %
Experimental: Process solutions containing 0.1 weight percent of a surfactant derived from 2,5,8,11-tetramethyl-6-dodecyne-5,8-diol or containing a fluorosurfactant, potassium perfluorooctane carboxylate provided by 3M of St. Louis, Mo. were prepared in order to compare the equilibrium surface tension (EST) and dynamic surface tension (DST). The EST for both solutions was measured using the Wilhemy plate method on a Kruss BP3 bubble pressure tensiometer manufactured by Kruss, Inc. of Charlotte, N.C.

Molecule | RM Foam initial (Initial Foam Height) [1] | RM Foam t to 0 (Time to 0 Foam) [1] | Sol Limit / critical aggregation concentration (CAG) [2] | RM Foam, foam height after 5 minutes [1] | Sol Limit / critical aggregation concentration (CAG) ([2]; solubility limit or critical micelle concentration in water) | EST [3]
3.5 mole ethoxylate of 2,4,7,9-tetramethyl-5-decyne-4,7-diol capped with 2 moles of propylene oxide [Example 3] | 1.0 cm | 10 s | 0.21 wt % |  |  | 
10 mole EO/2 mole PO block derivative of 2,4,7,9-tetramethyl-5-decyne-4,7-diol [Example 5] | 2.1 cm |  |  | 1.3 cm | (0.78) wt % | 
O=C([O-])C(F)(F)C(F)(F)C(F)(F)C(F)(F)C(F)(F)C(F)(F)C(F)(F)C(F)(F)F.[K+] [Fluorosurfactant, potassium perfluorooctane carboxylate, reference compound] |  |  |  |  |  | 21.2 dyne/cm
